Biological target: human serum albumin (HSA) (Homo sapiens, UniProt P02768)
Assay: 1D 1H NMR line broadening with HSA
Type: binding

Chain of human serum albumin (HSA) (P02768 25-609): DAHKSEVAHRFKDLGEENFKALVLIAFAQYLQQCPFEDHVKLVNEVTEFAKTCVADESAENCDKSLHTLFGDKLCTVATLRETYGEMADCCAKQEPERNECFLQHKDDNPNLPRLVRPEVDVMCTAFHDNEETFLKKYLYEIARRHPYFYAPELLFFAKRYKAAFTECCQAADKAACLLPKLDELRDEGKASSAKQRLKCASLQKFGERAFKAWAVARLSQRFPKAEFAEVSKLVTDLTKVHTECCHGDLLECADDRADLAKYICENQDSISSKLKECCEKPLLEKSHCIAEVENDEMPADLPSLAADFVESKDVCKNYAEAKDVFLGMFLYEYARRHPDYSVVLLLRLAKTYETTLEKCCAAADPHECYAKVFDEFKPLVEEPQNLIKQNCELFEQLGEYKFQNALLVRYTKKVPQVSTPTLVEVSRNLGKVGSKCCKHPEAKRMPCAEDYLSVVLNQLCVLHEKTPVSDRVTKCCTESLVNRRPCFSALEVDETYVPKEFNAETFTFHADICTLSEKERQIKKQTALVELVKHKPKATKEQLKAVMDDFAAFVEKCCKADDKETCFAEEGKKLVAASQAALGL

SMILES: Cc1cc(=O)oc2cc(O)ccc12 [7-hydroxy-4-methyl coumarin]
- 1D 1H NMR line broadening with HSA; competition with warfarin: The NMR resonances of the coumarin-analogue broaden (Fig (6a, b)) from the addition of HSA

From PMC6620029 (Combinatorial chemistry & high throughput screening, 2009)
